Among the test systems are COLO 205 colon; OVCAR-8 ovarian; MOLT-4 leukemia; UACC-257 melanoma; UACC-62 melanoma; HOP-62 NSCLC; SNB-19 CNS; NCI-H23 lung; IGROV1 ovarian; KM12 colon.
Common to all, as to assay: NCI tumour cell line growth inhibition, 48 h

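Following 48 hours of exposure in 96-well plates, responses at five concentrations were used to interpolate endpoints linearly. TGI marks complete inhibition of growth.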

For the molecule `Nc1nc(SCc2ccccc2Cl)c2[nH]cnc2n1`, the TGI in the experiment with COLO 205 colon, in the experiment on OVCAR-8 ovarian, with MOLT-4 leukemia, with UACC-257 melanoma, in the experiment with UACC-62 melanoma and in the experiment on HOP-62 NSCLC was more than 100 µM in each case. For the same molecule, the TGI in the experiment on SNB-19 CNS, in the experiment on NCI-H23 lung, with IGROV1 ovarian and in the experiment on KM12 colon was more than 100 µM each time.
On to `CCC(=O)OCN(C)c1nc(N(C)COC(=O)CC)nc(N(C)COC(=O)CC)n1`, for which the TGI in the experiment with COLO 205 colon was 59.2 µM; in the experiment on OVCAR-8 ovarian it was more than 100 µM; in the experiment with MOLT-4 leukemia, 82.9 µM; in the experiment on UACC-257 melanoma, more than 100 µM; with UACC-62 melanoma, 35.8 µM; in the experiment with HOP-62 NSCLC, more than 100 µM. Further, the TGI in the experiment with SNB-19 CNS, in the experiment on NCI-H23 lung, in the experiment on IGROV1 ovarian and in the experiment with KM12 colon was more than 100 µM each time.
On to `Cc1c2ccc3ccccc3c2c[n+]2ccccc12`, for which the TGI came to 16.5 µM with COLO 205 colon; 39.6 µM with OVCAR-8 ovarian; 48.7 µM in the experiment with MOLT-4 leukemia; 23.8 µM with UACC-257 melanoma; 33.9 µM with UACC-62 melanoma; 45.7 µM with HOP-62 NSCLC. Besides, the TGI with SNB-19 CNS was 23.1 µM; with NCI-H23 lung, 15.3 µM; with IGROV1 ovarian it was more than 100 µM; in the experiment with KM12 colon it was 12 µM.
On to `CCCC(=O)[O-].CCCC(=O)[O-].NCCN.NCCN.[Co+3].[O-][Cl+3]([O-])([O-])[O-]`, for which the TGI in the experiment with COLO 205 colon, in the experiment with OVCAR-8 ovarian, in the experiment with MOLT-4 leukemia, in the experiment on UACC-257 melanoma, in the experiment on UACC-62 melanoma and in the experiment with HOP-62 NSCLC was more than 100 µM each time. The TGI in the experiment with SNB-19 CNS, in the experiment on NCI-H23 lung, in the experiment on IGROV1 ovarian and in the experiment with KM12 colon was more than 100 µM throughout.
Take `CCCO[C@@H]1[C@@H](OC(C)=O)[C@@H](OC(C)=O)C(C)(C)/C=C/[C@H](C)C(=O)[C@@]2(OC(C)=O)C[C@@](C)(OC(C)=O)[C@H](OC(C)=O)[C@@H]2[C@H]2OC(=O)CC[C@@]12OC(=O)c1ccccc1`: the TGI in the experiment on COLO 205 colon, with OVCAR-8 ovarian, in the experiment on MOLT-4 leukemia, with UACC-257 melanoma, with UACC-62 melanoma and in the experiment with HOP-62 NSCLC was more than 25 µM in each case. Besides, the TGI in the experiment with SNB-19 CNS, in the experiment on NCI-H23 lung, in the experiment on IGROV1 ovarian and in the experiment with KM12 colon was more than 25 µM throughout.
For the molecule `CNC(C)C(O)c1ccc2oc3cc(=O)c4ccccc4c-3nc2c1` (stereo unspecified), the TGI was more than 100 µM in the experiment on COLO 205 colon; more than 100 µM with OVCAR-8 ovarian; 54.8 µM with MOLT-4 leukemia; 33.4 µM in the experiment with UACC-257 melanoma; 14.3 µM in the experiment with UACC-62 melanoma; 18.1 µM with HOP-62 NSCLC. Besides, the TGI with SNB-19 CNS is more than 100 µM; with NCI-H23 lung, more than 100 µM; in the experiment on IGROV1 ovarian it was more than 100 µM; in the experiment on KM12 colon, 49.8 µM.
On to `N[C@H](Cc1ccc2oc3cc(=O)c4ccccc4c-3nc2c1)C(=O)O`, for which the TGI with COLO 205 colon is more than 100 µM; in the experiment on OVCAR-8 ovarian it was more than 100 µM; in the experiment on MOLT-4 leukemia it was more than 100 µM; in the experiment with UACC-257 melanoma, more than 100 µM; in the experiment on UACC-62 melanoma, 62 µM; with HOP-62 NSCLC, more than 100 µM. The TGI in the experiment on SNB-19 CNS, with NCI-H23 lung, with IGROV1 ovarian and in the experiment on KM12 colon was more than 100 µM throughout.
On to `O=C1c2ccccc2OCC12OC21C=CC(Cl)=CC1` (stereo unspecified), for which the TGI in the experiment on COLO 205 colon was 33.4 µM; in the experiment with MOLT-4 leukemia, 23.5 µM; in the experiment on UACC-257 melanoma, more than 100 µM; in the experiment on UACC-62 melanoma it was more than 100 µM; in the experiment on HOP-62 NSCLC, 92.1 µM; in the experiment with SNB-19 CNS, 80.3 µM. For the same molecule, the TGI was 37.9 µM with NCI-H23 lung, more than 100 µM in the experiment on IGROV1 ovarian and 41.9 µM with KM12 colon.
`N#Cc1cc2c(cc1Cl)Sc1nnc(Nc3ccccc3)n1S2(=O)=O`: the TGI with COLO 205 colon was 4.75 µM; in the experiment on OVCAR-8 ovarian, 4.41 µM; with MOLT-4 leukemia, 4.06 µM; in the experiment with UACC-257 melanoma, 3.58 µM; with UACC-62 melanoma, 3.58 µM; with HOP-62 NSCLC it was 3.36 µM. In addition, the TGI came out at 6.66 µM in the experiment on SNB-19 CNS, 3.26 µM in the experiment on NCI-H23 lung, 5.76 µM with IGROV1 ovarian and 4.65 µM in the experiment on KM12 colon.
Consider `CCCn1cnc2c(SCc3ccc(Cl)cc3)nc(N)nc21`, for which the TGI in the experiment on OVCAR-8 ovarian was more than 100 µM; with UACC-257 melanoma, 41.8 µM; in the experiment with UACC-62 melanoma, 52.8 µM; with HOP-62 NSCLC, 44.4 µM; with SNB-19 CNS, more than 100 µM; in the experiment with NCI-H23 lung it was more than 100 µM. The TGI is more than 100 µM with IGROV1 ovarian and 58.9 µM in the experiment on KM12 colon.
For the molecule `C/C(=N\NC(=S)N1CCCC1)c1nc2ncccc2[nH]1`, the TGI was 28.5 µM in the experiment with COLO 205 colon; 39.9 µM with OVCAR-8 ovarian; 3.7 µM in the experiment with MOLT-4 leukemia; 10.7 µM in the experiment on UACC-257 melanoma; 11.2 µM in the experiment with UACC-62 melanoma; 24.6 µM in the experiment on HOP-62 NSCLC. Besides, the TGI with SNB-19 CNS turned out to be 17.1 µM; with NCI-H23 lung, 22.1 µM; with KM12 colon, 23.8 µM.
As for `Cc1ccc(CSC(N)=Nc2ccccc2)cc1C`, the TGI with COLO 205 colon was 41.5 µM; in the experiment on OVCAR-8 ovarian it was 45.9 µM; in the experiment with MOLT-4 leukemia, 75.4 µM; in the experiment with UACC-257 melanoma, 36.9 µM; in the experiment with UACC-62 melanoma it was 26.6 µM; with HOP-62 NSCLC, 49.1 µM. For the same molecule, the TGI in the experiment on SNB-19 CNS was found to be 65.9 µM; with NCI-H23 lung it was 57 µM; in the experiment on IGROV1 ovarian it was 57.5 µM; in the experiment with KM12 colon, 39.7 µM.
As for `COc1ccc(C2COc3c(ccc(O)c3C)C2)cc1OC` (stereo unspecified), the TGI in the experiment on COLO 205 colon was 166 µM; with OVCAR-8 ovarian, more than 200 µM; in the experiment with MOLT-4 leukemia, more than 183 µM; with UACC-257 melanoma, more than 200 µM; in the experiment on UACC-62 melanoma, more than 200 µM; with HOP-62 NSCLC, more than 200 µM. The TGI in the experiment on SNB-19 CNS, in the experiment with NCI-H23 lung, with IGROV1 ovarian and in the experiment with KM12 colon was more than 200 µM each time.

The values are drawn from PubChem BioAssay (NCI).
